Like-named read-outs stand apart in the source and are kept apart here.

The subject of assay [1] is Soybean plants (Delta Pine 415). The assay is described as follows: Soybeans test 3c: root nodules and total N, greenhouse. In kind it is in vivo, Glycine max. The settings on record: for Nodules: untreated 46. The protocol:
In these tests various types of non-sterile soils were used. The cultivation of the plants was carried out under greenhouse or climatic chamber conditions. The active compounds according to the invention were applied uniformly distributed over the soil surface in an aqueous preparation after the emergence of the respective test plants. The supply of water for the plants was carrried out using the same technique, always paying attention to uniform moistness of the soil. In the case of the cultivation of legumes, defined amounts of species-specific Rhizobia were admixed to the soil. In some cases inoculation was also carried out by seed treatment.
a) Soybean plants (Delta Pine 415) were cultivated under greenhouse conditions in low N Limburgerhof soil in plastic pots (500 ml) and watered from above as required. A few days after emergence the plants were thinned out to 5 plants per pot.
In 8 pots in each case per test member an aqueous active compound solution of 2.3.1.3 was applied by watering. 16 pots remained untreated in each case.
c) Test procedure as in 3 a)

The next assay relates to soybean plants. Conditions: even at distinctly higher ethylene administration; Lee and La Rue; cited from earlier work.
The test system of the next assay is white sweetclover. Conditions: 0.07 μl/l of ethylene gas/l of air; Lee and La Rue; cited from earlier work.
For assay [2], the system named is pea varieties Sparkle and Rondo. The settings on record: Lee and La Rue, cited from earlier work.
In the next assay the test system is parent strain Sparkle. Conditions: Fearn and La Rue 1991; cited from earlier work.
In a further assay the test system is pea variety Sparkle. The settings on record: nodule formation reduced by provision of light in the root area; Lee and La Rue; cited from earlier work.
A further assay has as its system mutant EZ (Sym5) of peas. The settings on record: severely reduced nodule formation of the mutant; Fearn and La Rue 1991; cited from earlier work.
The mark [3] stands for this setting: 0.030 mg of a.s./pot; procedure as in 3 a).
Setting [4] is: 0.300 mg of a.s./pot; procedure as in 3 a).

As for `CCCCCCOC(=O)CON=C(C)C` [active compound 2.3.1.4], the “Total N (shoots + root)” value in assay [1] (setting [3]) was 103 % of control; in assay [1] (setting [4]) it was 110 % of control. The results for the Nodules in assay [1] (setting [3]) and in assay [1] (setting [4]) were 55 number/pot and 66 number/pot, respectively.

Consider `C=C` [ethylene], for which the nodulation entry in the assay with soybean plants was “no significant effect on nodulation”. In addition, the nodule formation result (with white sweetclover; in assay [2] (0.07 μl/l of ethylene gas/l of air)) was “severe reduction in nodule formation” each time.

On to `O=S(=O)([O-])[O-].[Ag+].[Ag+]` [Ag2SO4], for which the nodulation result in the assay on parent strain Sparkle is reported as “not affected”. Further, the nodule formation entry is reported as “reverse the reduced nodule formation by light” in the assay on pea variety Sparkle; “normal nodule formation could be restored” in assay [2] (peas (Sparkle), in the presence of ethylene); “partially restored” in the assay on mutant EZ (Sym5) of peas.

In the case of `O=[N+]([O-])[O-].O=[N+]([O-])[O-].[Co+2]` [Co(NO3)2], the nodulation result in the assay with parent strain Sparkle is “not affected”. The nodule formation entry in the assay with mutant EZ (Sym5) of peas is given as “partially restored”.

As for `CC(C)OCOC(=O)CON=C1CCCCC1` [active compound 2.3.1.5], in assay [1] (setting [3]), the “Total N (shoots + root)” value is given as 104 % of control and the Nodules stood at 70 number/pot. In assay [1] (setting [4]), the “Total N (shoots + root)” value is recorded as 107 % of control and the Nodules came out at 61 number/pot.

The values are drawn from US6369003B1, “Process and composition for soil improvement by reducing microbially formed ethylene in the soil” (BASF Aktiengesellschaft, priority 1994, dated 2002).
